From BindingDB's records for doi:10.1021/jm800052b (Genentech, 2008)

How the values were obtained:
Aurora kinase A = molecular target: T1, Aurora kinase A (Homo sapiens, UniProt O14965); test: Enzyme Inhibition Assay; conditions: pH 7.5; 22 °C
T1 sequence (O14965 whole entry): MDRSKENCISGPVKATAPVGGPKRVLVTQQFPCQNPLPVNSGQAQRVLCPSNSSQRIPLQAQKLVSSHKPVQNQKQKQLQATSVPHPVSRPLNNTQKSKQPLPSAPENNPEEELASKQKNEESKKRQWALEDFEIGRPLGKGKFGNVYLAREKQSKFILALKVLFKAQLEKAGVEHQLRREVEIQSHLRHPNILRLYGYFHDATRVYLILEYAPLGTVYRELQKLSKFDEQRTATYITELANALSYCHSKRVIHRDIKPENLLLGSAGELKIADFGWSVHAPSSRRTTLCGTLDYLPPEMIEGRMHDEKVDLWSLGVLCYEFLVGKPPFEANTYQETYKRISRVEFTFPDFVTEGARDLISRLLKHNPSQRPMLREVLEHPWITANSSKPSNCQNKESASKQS
Description: (§1) Aurora kinase was assayed in ELISA format using a GST fusion of the N-terminus of Histone H3 as substrate. Plates were coated with substrate, and then blocked with I-block (Tropix) in PBS. After kinase reaction, product was detected by incubation with antiphosphohistone H3 (Ser10) 6G3 mouse monoclonal antibody and sheep-antimouse HRP conjugate, followed by washing and addition of TMB substrate.

Aurora kinase B = Aurora kinase B (Homo sapiens, UniProt Q96GD4); test: Enzyme Inhibition Assay; conditions: pH 7.5; 22 °C
Description: as §1

Aurora kinase B, sequence (Q96GD4 whole entry): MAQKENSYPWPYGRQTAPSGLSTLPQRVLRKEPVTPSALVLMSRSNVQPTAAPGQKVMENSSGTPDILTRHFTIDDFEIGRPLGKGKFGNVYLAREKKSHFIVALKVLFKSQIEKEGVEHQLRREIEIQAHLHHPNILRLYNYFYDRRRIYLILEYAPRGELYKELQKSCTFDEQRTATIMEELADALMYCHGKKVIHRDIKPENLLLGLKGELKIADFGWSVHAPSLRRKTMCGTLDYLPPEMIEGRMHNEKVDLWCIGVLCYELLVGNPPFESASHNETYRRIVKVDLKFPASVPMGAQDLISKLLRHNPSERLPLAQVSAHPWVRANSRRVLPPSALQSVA

SMILES	IC50 (Aurora kinase A) [nM]	IC50 (Aurora kinase B) [nM]
Cc1[nH]nc2c1CCCc1c-2[nH]c2ccccc12 [5-methyl-3,4,17-triazatetracyclo[8.7.0.0^{2,6}.0^{11,16}]heptadeca-1(10),2,5,11,13,15-hexaene]	42	22
Cc1[nH]nc2c1CCCc1c-2[nH]c2cc3c(cc12)NC(=O)C3(C)C [7,7,16-trimethyl-5,11,14,15-tetraazapentacyclo[10.8.0.0^{2,10}.0^{4,8}.0^{13,17}]icosa-1(12),2,4(8),9,13,16-hexaen-6-one]		< 2
